Assay [1] has as its system COX-1 and COX-2. Particulars: cited from earlier work.
In assay [2] the test system is systemic oxidative stress parameters. The assay can be described thus: Systemic redox state (plasma, erythrocyte lysate) 24 h after carrageenan. Format: in vivo, Wistar albino rats. On the procedure:
(§1) Following 24 h of carrageenan-induced paw edema inflammation model and intraperitoneal anesthesia induced by ketamine/xylazine (100/10 mg/kg of BW), the animals were sacrificed, while whole-blood samples and edema-affected paw tissues were isolated. After centrifugation of whole blood, plasma and erythrocyte lysate samples were separated for further examination of the applied compounds’ effects on the systemic redox balance state. Pro-oxidative markers including superoxide anion radical (O2∙^−), hydrogen peroxide (H2O2) nitrites (NO2^−), and index of lipid peroxidation measured as thiobarbituric acid (TBA) reactive substances (TBARS) were determined from plasma samples, while the antioxidant capacity, including superoxide dismutase (SOD) and catalase (CAT) activity, as well as the reduced glutathione (GSH) level were examined in erythrocyte lysate samples [46]. […] Edema-affected paw tissue samples were weighed (100 mg) and homogenized (OmniPrep™ multi-sample homogenizer, Omni International, Kennesaw, GA, USA) in 900 µL phosphate buffer on ice (pH = 7.4), and centrifuged at 12,000 rpm for 20 min. These supernatant samples were used for the determination of the aforementioned pro-oxidative and antioxidative parameters levels. All oxidative stress analyses were performed spectrophotometrically using a Shimadzu UV 1800 spectrophotometer (Kyoto, Japan).
(§2) Determination of the O2∙^− level was conducted by adding 950 µL of a Nitro Blue Tetrazolium (NBT) mixture with TRIS buffer in 50 µL of sample, measured at the 550 nm wavelength. The level of H2O2 was determined during the oxidation of phenol red by H2O2, which was catalyzed with horseradish peroxidase and measured at the 610 nm wavelength. Indirect measurement of nitrites was performed by the precipitation of samples with 30% sulfo-salicylic acid, followed by vortexing and centrifugation at 3000 rpm for 15 min. The equal volumes of isolated supernatant and Griess’ reagent (containing 1% sulfanilamide in 5% phosphoric acid/0.1% naphthalene ethylenediamine-dihydrochloride) were incubated for 10 min and measured at the 550 nm wavelength. The TBARS concentration was determined by adding 400 µL of sample to 200 µL of TBA in 0.05 M NaOH, followed by 15 min incubation at 100 °C. Measurement was performed at the 530 nm wavelength.
(§3) The epinephrine method was used for SOD determination. By adding 100 µL of sample, the same volume of epinephrine, and 1000 µL of carbonate buffer, the measurement was performed at the 470 nm wavelength. The determination of CAT activity was based on the preparation of a mixture containing 100 µL of sample, 50 µL of catalase buffer, and 1000 µL of 10 mM H2O2, which was measured at the 230 nm wavelength.

For assay [3], the system named is local oxidative stress parameters. The experiment in a line: Local redox state (edema-affected paw tissue homogenate) 24 h after carrageenan. The following applies: inflamed paw tissue. The class given is in vivo, Wistar albino rats. The method, then: as §1, §2, §3
Assay [4] deals with T1, COX-1 (Ovis aries, UniProt P05979).
T1 sequence (P05979 25-600): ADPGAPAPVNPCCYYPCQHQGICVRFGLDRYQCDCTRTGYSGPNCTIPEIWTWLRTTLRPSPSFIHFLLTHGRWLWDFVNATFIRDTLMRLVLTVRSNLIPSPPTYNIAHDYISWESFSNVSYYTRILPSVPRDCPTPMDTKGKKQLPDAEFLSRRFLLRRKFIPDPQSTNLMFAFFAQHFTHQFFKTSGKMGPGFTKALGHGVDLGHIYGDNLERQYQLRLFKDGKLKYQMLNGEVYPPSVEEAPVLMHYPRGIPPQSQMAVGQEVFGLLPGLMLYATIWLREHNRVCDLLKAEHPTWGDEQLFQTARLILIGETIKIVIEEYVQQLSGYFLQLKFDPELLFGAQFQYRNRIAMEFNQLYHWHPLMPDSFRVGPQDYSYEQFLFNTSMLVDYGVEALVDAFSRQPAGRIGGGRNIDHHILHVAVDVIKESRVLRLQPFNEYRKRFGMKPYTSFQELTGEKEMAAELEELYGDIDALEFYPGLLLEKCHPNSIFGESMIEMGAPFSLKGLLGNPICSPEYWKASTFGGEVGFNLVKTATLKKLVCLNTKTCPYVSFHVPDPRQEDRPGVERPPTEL
The experiment in a line: Fluorometric COX-1 inhibitor screening kit. The class given is biochemical. On the set-up: purchased Abcam ab204698. Particulars: mean ± standard error, three independent measurements. On the procedure:
The inhibitory activity of the tested compounds against COX-1 and COX-2 isoforms was assessed using fluorometric cyclooxygenase inhibitor screening kits (Catalog Numbers ab204698 and ab283401, respectively; Abcam, Cambridge, UK). These assays detect the formation of prostaglandin G2, a product of COX enzymatic activity, via fluorometric measurement.
Stock solutions of the test compounds were prepared at a concentration of 5 mM in DMSO and subsequently diluted with the same solvent to obtain the test solutions. For the assay preparation, 2 μL of each test solution was diluted with 8 μL of COX assay buffer. The solvent control (SC) consisted of 2 μL of DMSO and 8 μL of assay buffer, while the enzyme control (EC) contained 10 μL of assay buffer alone. Sample wells (S) received 10 μL of the diluted test solutions. All other steps were in accordance with the manufacturer’s protocol and the previously published article. […] The percentage of inhibition was calculated as follows:(3) % Relative Inhibition=Slope of EC−Slope of S/Slope of EC×100
Fluorescence measurements were conducted on a BioTek Synergy LX multi-mode reader (Winooski, VT, USA).

`C[C@@H](C(=O)O)c1cccc(C(=O)c2ccccc2)c1` [(R)-ketoprofen]: the “Times lower COX inhibitory capacity than dexketoprofen” value in assay [1] was 100 to 1000 times.
As for `C[C@H](C(=O)O)c1cccc(C(=O)c2ccccc2)c1` [Dexketoprofen, reference compound], in assay [2] (erythrocyte lysate), the “Systemic CAT activity compared to Sol (untreated) rats” value was “significantly reduced activity of SOD and CAT, as well as the GSH level, in untreated rats compared to Dex”; the “Systemic GSH level compared to untreated rats” value is “significantly reduced activity of SOD and CAT, as well as the GSH level, in untreated rats compared to Dex”; the “Systemic SOD activity compared to Sol (untreated) rats” value was “significantly reduced activity of SOD and CAT, as well as the GSH level, in untreated rats compared to Dex”. Further, in assay [2] (plasma), the “Systemic H2O2 level compared to solvent rats” value is “significantly lower”, the “Systemic O2∙− level compared to untreated (Sol) rats” value was “significantly lower” and the “Systemic TBARS level compared to Sol (untreated) rats” value is recorded as “significantly decreased”. Further, in assay [3], the “Local O2∙− concentration compared to untreated rats” value is on record as “significantly decreased” and the “Local SOD activity compared to untreated (negative control) rats” value is recorded as “remarkably improved”. In addition, the “Local nitrites level (reduction, p < 0.05)” value in assay [3] (comparator not given) is on record as “markedly reduced”. Besides, the 50% inhibitory concentration (IC50) in assay [4] worked out at 1.5 ± 0.6 nM.

(Values after paper PMC12291762 (Antioxidants, 2025).)
